Tests used:
[1] = tested on: R6/2 HD mouse brain; experiment: icv infusion in R6/2 mice, striatal qRT-PCR; type: in vivo; settings: 0.1 mM in saline icv infusion by osmotic pump from 6 weeks of age, one week, vs. R6/2-saline
[2] = tested on: 5-mC in Bdnf promoter IV region; experiment: MeDIP-qPCR of Bdnf promoter IV; type: cell-based, mouse; settings: Htt-72Q-expressing cortical neurons, 0.2 μM vs DMSO
Text: FIG. 4A-4H illustrate that mutant Htt increased the levels of DNA methylation at Bdnf exon IV regulatory region in primary cortical neurons. (FIG. 4A) Schematic of the mouse Bdnf exon IV regulatory region near the TSS. The positions of CpG sites are indicated relative to the TSS. (FIG. 4B) DIV 5 primary cortical neurons were infected with lentivirus expressing Htt-25Q or Htt-72Q exon 1 fragment; 5 days later, genomic DNA was purified and subjected to bisulfite sequencing analysis. […] Increased DNA methylation was found in mutant Htt-expressing neurons compared to WT Htt-expressing neurons. 28-30 clones from 7 independent experiments were analyzed (See FIG. 11A) for the bisulfite sequencing data from each clone). The number above the black bar (Htt-72Q) represents the fold changes in methylated cytosine relative to the white bar (Htt-25Q) at the indicated position. (FIG. 4C) Genomic DNA was purified from primary cortical neurons transduced as in (B) and subjected to MeDIP with anti-5-mC antibody followed by qPCR. […]
Genomic DNA was isolated from primary cortical neurons using QIAamp DNA Mini Kit (QIAGEN) and fragmented by sonication using Bioruptor (Diagenode). […] The percentage input was calculated by first normalizing IP to input DNA using the formula (2^[(Ct(10% input)-3.32)-Ct(IP)]×100) as described previously^89. […]

[3] = tested on: downregulated genes in mutant Htt-expressing striatal neurons; experiment: qRT-PCR of striatal genes in Htt-72Q primary striatal neurons; type: cell-based, mouse; settings: Htt-72Q striatal neurons
Description: Mouse primary cortical and striatal neurons from embryonic day (E) 15.5 Swiss Webster mouse fetuses (Taconic) were first plated in the minimal essential medium (MEM) containing 10% FBS, 0.45% glucose, 1 mM sodium pyruvate, 2 mM glutamine, 20 U/ml penicillin and 20 μg/ml streptomycin, for 3 h and then maintained in serum-free Neurobasal medium (Life Technologies) containing NeuroCult™ SM1 neuronal supplement ([…] Technologies), 0.5 mM glutamine and 25 μM glutamate for the first 3 d in a humidified incubator (37° C. in 5% CO2). Half of the medium was replaced with Neurobasal medium with SM1 and 0.5 mM glutamine every 3 days.

[4] = literature refs 64, 65; cited from earlier work
[5] = tested on: Htt-72Q-expressing primary cortical neurons; experiment: Epigenetic drug library screen, resazurin (Alamar Blue) assay; type: cell-based, mouse; settings: 0.02, 0.2, 2 μM added at DIV 6, resazurin at DIV 14; hits validated by MTS
Description: As epigenetic gene regulation is a cell-type specific mechanism, we used a physiologically relevant, post-mitotic cortical neuron culture system for this screen. In this system, lentivirus-mediated expression of the exon 1-encoded N-terminal fragment of mutant Htt (Htt-72Q with a 72 glutamine repeat), but not wild-type (WT) Htt (Htt-25Q), induces neurotoxicity^38. […] In the drug screen, the viability of Htt-expressing cortical neurons was determined by the resazurin (Alamar Blue) assay, a quantitative measurement of mitochondrial metabolic activity, which correlates with cell viability.
Epigenetic drug screen was performed using a primary cortical neuron model of HD with a drug library composed of 84 compounds (Table 1), among which 80 drugs are purchased from Cayman Chemical (Epigenetic Screening Library Item No 11076) and four drugs, SGC0946, EPZ5676, EPZ6438, and GSK126, were obtained from Xcessbio Biosciences Inc. Mouse primary cortical neurons were plated on 96-well flat clear bottom black plates (Corning #3904). WT or mutant Htt exon1 fragment (Htt-25Q or Htt-72Q)-expressing lentiviruses are infected at DIV 5 as described above. The 84 compounds were added to the media at DIV 6 one day after Htt lentiviral infection with three different doses (0.02, 0.2, 2 μM) for each compound at triplicates. DMSO was used as control. Media containing compounds or DMSO were changed every three days to maintain the compounds' activity. At DIV 14, the viability of neurons was determined by resazurin (Alamar blue) assay, a quantitative measurement of mitochondrial metabolic activity. The screen was fully automated and performed in the High-Throughput Screening Center in Washington University School of Medicine. Any possible plate effects were determined using control plates treated with DMSO and used for normalization. Screen hits were validated by MTS assay.

[6] = In vitro stability: preincubation at 37° C. in saline, then MTS neuroprotection assay; settings: 0.2 mM in saline preincubated at 37° C. for 11 days, then 0.2 μM on Htt-72Q cortical neurons, MTS at DIV 14
Description: Data are presented as mean+SEM.
Primary cortical neurons grown in a 96-well plate were transduced with Htt-expressing lentiviruses at DIV 5 and assessed for mitochondrial metabolic activity at 9 days post-infection (DIV 14) using 3-(4,5-dimethylthiazol-2-yl)-5-(3-carboxymethoxyphenyl)-2-(4-sulfophenyl)-2H-tetrazolium (MTS) (Promega) per manufacturer's instructions. MTS-reducing activity was normalized for each condition to Htt-25Q lentiviruses treated with vehicle or cotransduced with control RNAi lentivirus (=1). Experiments were performed in 3 or more wells per experiment in three to five independent experiments.

Compound	striatal Penk RNA [1]	striatal levels of Drd2, Ppp1r1b, Rasd2, and Adora2a mRNA [1]	levels of 5-mC in Bdnf promoter IV region (MeDIP) [2]	mRNA levels of Kdm8 (specificity control) [3]	expression of downregulated genes (Drd2, Ppp1r1b, Penk, Pcp4, Rasd2) ([3]; RNA 5 days after infection, vs. Htt-72Q plus vehicle)	in vitro stability as reported previously [4]	outcome in epigenetic drug screen (84 compounds) [5]	neuroprotective activity after preincubation (in vitro stability) [6]
Nc1nc(=O)n([C@H]2C[C@H](O)[C@@H](CO)O2)cc1F [FdCyd, 5-fluoro-2′-deoxycytidine]	trend towards increasing	restored	decreased levels of 5-mC in Bdnf promoter IV region	–	–	–	–	–
Nc1ncn([C@H]2C[C@H](O)[C@@H](CO)O2)c(=O)n1 [decitabine, 5-aza-2′-deoxycytidine]	–	–	decreased levels of 5-mC in Bdnf promoter IV region	unchanged	restored the expression of downregulated genes	instability	the most effective drug	lost its activity
